The source of these data is US6326020A (priority 1998, dated 2001).

Assay [1] relates to sciatic nerve. The note with it: rat, in vivo.
Assay [2] has as its system nerve block. On the set-up: species or system human. The settings on record: in vivo.
The test system of assay [3] is sciatic nerve. On the set-up: species or system Sprague-Dawley rat. The note with it: rat, in vivo.
Assay [4] has as its system thermal nociception. The settings on record: rat, in vivo.
Assay [5] concerns sciatic nerve. On the set-up: species or system Sprague-Dawley rat. The settings on record: rat, in vivo. This is another data set of the same source.
Assay [6] has as its system sciatic nerve. On the set-up: species or system Sprague-Dawley rat. The note with it: rat, in vivo. This is another data set of the same source.
Assay [7] deals with sciatic nerve. On the set-up: species or system Sprague-Dawley rat. The settings on record: rat, in vivo. The source holds these as a separate data set.

Regarding `COc1cc(CNC(=O)CCCC/C=C/C(C)C)ccc1O` [capsaicin, trans-8-methyl-N-vanillyl-6-nonenamide], in assay [1], the “Dose required for prolonged block with TTX, fold below threshold for block from the vanilloid alone” value was “more than 5 fold” and the “Duration of prolonged block” value came out at 2 days. The “Duration of prolonged block” value in assay [2] fell in the range of 3 to 4 days.
The corresponding values for `C=C(C)C12CC(C)C34OC(Cc5ccccc5)(OC1C3C=C(COC(=O)Cc1ccc(O)c(OC)c1)CC1(O)C(=O)C(C)=CC14)O2` (centres unmarked) [resiniferotoxin] are “more than 5 fold”, 2 days and 3 to 4 days.
As for `CCCCN1CCCCC1C(=O)Nc1c(C)cccc1C` (centres unmarked) [Bupivacaine, bupivacaine], the “Duration of Effective Block, Hop” value in assay [3] was 143 ± 48 min. Moreover, the “Duration of block, thermal nociception” value in assay [4] came to 104 ± 18 min. The “Duration of Effective Block, EPT” value in assay [5] was found to be 190 ± 56 min. For the same compound, the “Duration of Effective Block, PPR” value in assay [6] was determined as 162 ± 44 min. Also, in assay [7], the “"Missed block" rate” value turned out to be 0%, the Modalities impaired result was “all four modalities were impaired in all rats” and the “Rate of successful block” value came to 100%.
As to `Oc1cc2c(cc1O)CN(C(=S)NCCc1ccc(Cl)cc1)CCC2` [capsazepine], the “Reversal of established block from vanilloid-site 1 toxin combination” value in assay [1] is on record as “reverses established block”.
